Laboratory results reported in patent US10620222B2, “Electrified compositions for determining the risk of developing adolescent idiopathic scoliosis through the use of GI protein receptor” (CHU Sainte-Justine, priority 2008, dated 2020).
Where “and” joins values, the source holds several entries; their conditions need not be identical. Identical values can stand only once.

System: receptors coupled to Gi proteins expressed on osteoblasts
Assay: Cellular Dielectric Spectroscopy (CDS, CELLKEY) response to Gi-coupled receptor ligands in osteoblasts from control and AIS subjects
Assay type: cell-based, human
Parameters: % of control / % of control signal, Group 1, min diff. / % of control signal, Group 2, min diff. / % of control signal, Group 3, min diff.: concentration or dose not given beside the values; dZiec value / Absolute dZiec, control value of max diff. (maximal control value): unit not given here
Details: for dZiec value / Absolute dZiec, control value of max diff. (maximal control value) / Absolute dZiec, control value of min diff. (minimal control value) / Absolute dZiec, Group 1, max diff. (group value) / Absolute dZiec, Group 1, min diff. (group value) / Absolute dZiec, Group 2, max diff. (group value) / Absolute dZiec, Group 2, min diff. (group value) / Absolute dZiec, Group 3, max diff. (group value) / Absolute dZiec, Group 3, min diff. (group value): 300 μM ligand; for dZiec value: n1, n2 of Exper. 1-3; for Absolute dZiec, control value of max diff. (maximal control value) / Absolute dZiec, control value of min diff. (minimal control value): osteoblasts of control subjects; for Absolute dZiec, control value of max diff. (maximal control value) / Absolute dZiec, control value of min diff. (minimal control value) / Absolute dZiec, Group 1, max diff. (group value) / Absolute dZiec, Group 1, min diff. (group value) / Absolute dZiec, Group 2, max diff. (group value) / Absolute dZiec, Group 2, min diff. (group value) / Absolute dZiec, Group 3, max diff. (group value) / Absolute dZiec, Group 3, min diff. (group value): from FIGS. 11A-11F; for Absolute dZiec, Group 1, max diff. (group value) / Absolute dZiec, Group 1, min diff. (group value) / % of control signal, Group 1, max diff. / % of control signal, Group 1, min diff. / Absolute dZiec, Group 2, max diff. (group value) / Absolute dZiec, Group 2, min diff. (group value) / % of control signal, Group 2, max diff. / % of control signal, Group 2, min diff. / Absolute dZiec, Group 3, max diff. (group value) / Absolute dZiec, Group 3, min diff. (group value) / % of control signal, Group 3, max diff. / % of control signal, Group 3, min diff.: osteoblasts; for Absolute dZiec, Group 1, max diff. (group value): AIS Group 1 value of max diff.; for Absolute dZiec, Group 1, min diff. (group value): AIS Group 1 value of min diff.; for % of control signal, Group 1, max diff.: AIS Group 1 vs maximal control value; for % of control signal, Group 1, min diff.: AIS Group 1 vs minimal control value; for Absolute dZiec, Group 2, max diff. (group value): AIS Group 2 value of max diff.; for Absolute dZiec, Group 2, min diff. (group value): AIS Group 2 value of min diff.; for % of control signal, Group 2, max diff.: AIS Group 2 vs maximal control value; for % of control signal, Group 2, min diff.: AIS Group 2 vs minimal control value; for Absolute dZiec, Group 3, max diff. (group value): AIS Group 3 value of max diff.; for Absolute dZiec, Group 3, min diff. (group value): AIS Group 3 value of min diff.; for % of control signal, Group 3, max diff.: AIS Group 3 vs maximal control value; for % of control signal, Group 3, min diff.: AIS Group 3 vs minimal control value
Text: Bone specimens were obtained intraoperatively from vertebras (varying from T3 to L4 according to the surgical procedure performed), while with trauma cases used as non-scoliotic controls bone specimens were obtained from other anatomical sites (tibia or femur, and in one case from an iliac crest biopsy). Osteoblasts and myoblasts isolated as previously described (Moreau A, Wang D S, Forget S et al. Melatonin Signaling Dysfunction in Adolescent Idiopathic Scoliosis. Spine 2004; 29:1772-81; Azeddine et al., 2007 Molecular determinants of melatonin signaling dysfunction in adolescent idiopathic scoliosis. Clin Orthop Relat Res. 2007, 462:45-52), were cultured at 37° C./5% CO2 in MEM supplemented with 10% fetal bovine serum (FBS) and 100 μg/mL streptomycin. Prior to the experiment, cells were seeded into the CELLKEY™ label-free cellular analysis system standard 96-well plates at a density of 5×10^4/well and grown for 24 h and incubated in standard conditions (37° C./5% CO2). In some plates, Pertussis toxin (100 ng/mL, Sigma, Oakville, ON, Canada) treatment was performed 16 h before the CDS assay. Following overnight incubation, plates were placed onto the CELLKEY™ label-free cellular analysis system and growth medium was exchanged to assay buffer (Hanks, Balanced Salt Solution containing 20 mM HEPES and 0.1% BSA) before starting the experiment. Cells were then allowed to equilibrate at room temperature for 30 min. Pre-addition measurements were made for 5 min to obtain a baseline reading. […] The quick update rate (2 s.) of the CELLKEY™ label-free cellular analysis system allows detection of these immediate changes in impedance. Impedance measurements were collected for 10 min to 15 min at 28° C. after ligand addition to monitor cellular responses to ligand interaction and to generate CELLKEY™ label-free cellular analysis system response profiles that are characteristic of the signaling mechanisms used.
The response induced by the various ligands to their receptors was measured by cellular dielectric spectroscopy (CDS) using the CELLKEY™ label-free cellular analysis technology. (MDS Sciex, San Francisco, Calif., USA). The CELLKEY™ label-free cellular analysis system integrates a proprietary impedance measurement system, custom 96-well microliter plate, onboard 96-well fluidics, and environment control and custom acquisition and analysis software in a full solution package (MDS Sciex) that is compatible with commercially available robotic platforms. Small voltage at 24 frequencies, from 1 KHz to 10 MHz, is applied to a monolayer of cells settled in a 96-well microplate containing electrodes at the bottom, and the resultant current is measured at an update rate of 2 s. […] Onboard fluid additions and exchanges are handled by 96-well head fluid delivery device with a range of 5-500 μL. In addition to the cell plate location, the CELLKEY™ label-free cellular analysis system includes two additional stations for 96- or 384-well compound plates. All aspects of assay set up, execution, and data acquisition and analysis are controlled by CELLKEY™ label-free cellular analysis software.
The minimal (min) and maximal (max) values represent the mean of three independent measurements performed in duplicate (six values in total) for a given patient/control subject. […] Duplicates (n1 and n2) of three independent experiments are presented.

[1] = osteoblasts of AIS#1020 (Group 3) relative to CTR#60
[2] = osteoblasts of AIS#1020 (Group 3)
[3] = osteoblasts of AIS#1198 (Group 3 in Table II) relative to CTR#69
[4] = osteoblasts of AIS#1198 (Group 3 in Table II)
[5] = osteoblasts of AIS#1468 (Group 3) relative to CTR#61
[6] = osteoblasts of AIS#1468 (Group 3)
[7] = osteoblasts of AIS#1474 (Group 1) relative to CTR#60
[8] = osteoblasts of AIS#1474 (Group 1)
[9] = osteoblasts of AIS#1488 (Group 1) relative to CTR#69
[10] = osteoblasts of AIS#1488 (Group 1)
[11] = osteoblasts of AIS#1513 (Group 3) relative to CTR#61
[12] = osteoblasts of AIS#1513 (Group 3)
[13] = osteoblasts of AIS#1550 (Group 2) relative to CTR#60
[14] = osteoblasts of AIS#1550 (Group 2)

CNC(=O)[C@H]1O[C@@H](n2cnc3c(NCc4cccc(I)c4)ncnc32)[C@H](O)[C@@H]1O [IB-meca, 1-Deoxy-1-[6-[[(3-iodophenyl)methyl]amino]-9H-purin-9-yl]-N-methyl-β-D-ribofuranuronamide]
% of control [1]: 50.1% and 47.6% and 50.6% and 47.2% and 47.5% and 50.0%
dZiec value [2]: 74.19 and 76.19 and 87.32 and 85.32 and 76.76 and 84.76
% of control [3]: 41.1% and 45.4% and 47.8% and 50.0% and 45.1% and 47.6%
dZiec value [4]: 63.58 and 75.58 and 85.63 and 93.63 and 75.61 and 83.61
% of control (osteoblasts of AIS#1385 (Group 2) relative to CTR#69): 47.6% and 45.3% and 47.5% and 44.4% and 44.9% and 47.4%
dZiec value (osteoblasts of AIS#1385 (Group 2)): 73.49 and 75.49 and 85.15 and 83.15 and 75.32 and 83.32
% of control [5]: 77.6% and 79.5% and 78.4% and 78.2% and 79.4%
dZiec value [6]: 98.77 and 110.77 and 121.90 and 129.90 and 111.34 and 119.34
% of control [7]: 21.1% and 18.9% and 21.2% and 20.8% and 18.5% and 22.4%
dZiec value [8]: 31.25 and 30.25 and 36.61 and 37.61 and 29.93 and 37.93
% of control [9]: 25.5% and 24.8% and 26.8% and 24.5% and 23.6% and 27.1%
dZiec value [10]: 39.34 and 41.34 and 47.91 and 45.91 and 39.63 and 47.63
% of control [11]: 61.6% and 64.9% and 67.0% and 68.6% and 64.8% and 66.7%
dZiec value [12]: 78.36 and 90.36 and 104.12 and 112.12 and 92.24 and 100.24
% of control [13]: 44.2% and 42.1% and 47.0% and 43.8% and 42.9% and 45.6%
dZiec value [14]: 65.47 and 67.47 and 81.23 and 79.23 and 69.35 and 77.35
dZiec value (osteoblasts of control CTR#60): 148.22/— and 160.22/— and 172.73/— and 180.73/— and 161.48/— and 169.48/—
dZiec value (osteoblasts of control CTR#61): 127.27/— and 139.27/— and 155.44/— and 163.44/— and 142.36/— and 150.36/—
dZiec value (osteoblasts of control CTR#69): 154.52/— and 166.52/— and 179.10/— and 187.10/— and 167.81/— and 175.81/—
Absolute dZiec, control value of max diff. (maximal control value): 172
Absolute dZiec, control value of min diff. (minimal control value): 132
Absolute dZiec, Group 1, max diff. (group value): 20
Absolute dZiec, Group 1, min diff. (group value): 43
% of control signal, Group 1, max diff.: 12%
% of control signal, Group 1, min diff.: 33%
Absolute dZiec, Group 2, max diff. (group value): 73
Absolute dZiec, Group 2, min diff. (group value): 80
% of control signal, Group 2, max diff.: 42%
% of control signal, Group 2, min diff.: 61%
Absolute dZiec, Group 3, max diff. (group value): 98
Absolute dZiec, Group 3, min diff. (group value): 115
% of control signal, Group 3, max diff.: 55%
% of control signal, Group 3, min diff.: 87%

Brc1c(NC2=NCCN2)ccc2nccnc12 [UK14304, 5-bromo-N-(4,5-dihydro-1H-imidazol-2-yl)-6-quinoxalinamine]
% of control [1]: 42.4% and 37.2% and 34.7% and 40.5% and 37.5% and 41.7%
dZiec value [2]: 42.74 and 39.74 and 43.5 and 51.5 and 41.62 and 49.62
% of control [3]: 42.6% and 43.7% and 57.1% and 54.0% and 49.1% and 58.9%
dZiec value [4]: 44.16 and 46.16 and 56.22 and 54.22 and 46.19 and 54.19
% of control [5]: 72.7% and 71.7% and 76.2% and 68.8% and 73.0%
dZiec value [6]: 65.72 and 67.72 and 77.77 and 75.77 and 67.75 and 75.75
% of control [7]: 20.4% and 19.3% and 18.6% and 19.1% and 17.5% and 16.4%
dZiec value [8]: 20.6 and 23.35 and 24.35 and 19.48
% of control [9]: 25.3% and 24.2% and 26.3% and 18.8% and 28.2% and 28.5%
dZiec value [10]: 26.24 and 25.55 and 25.92 and 18.92 and 26.55
% of control [11]: 64.7% and 64.0% and 70.1% and 63.2% and 65.8% and 67.8%
dZiec value [12]: 58.45 and 60.45 and 71.58 and 69.58 and 61.02 and 69.02
% of control (osteoblasts of AIS#1549 (Group 1) relative to CTR#61): 30.0% and 30.8% and 33.7% and 33.1% and 35.3% and 36.1%
dZiec value (osteoblasts of AIS#1549 (Group 1)): 27.08 and 29.08 and 34.45 and 36.45 and 32.76 and 36.76
% of control [13]: 53.2% and 42.7% and 45.3% and 35.2% and 41.6% and 45.5%
dZiec value [14]: 53.62 and 45.62 and 56.75 and 44.75 and 46.19 and 54.19
dZiec value (osteoblasts of control CTR#60): 100.78/— and 106.78/— and 125.27/— and 127.27/— and 111.02/— and 119.02/—
dZiec value (osteoblasts of control CTR#61): 90.39/— and 94.39/— and 102.1/— and 110.1/— and 92.75/— and 101.75/—
dZiec value (osteoblasts of control CTR#69): 103.67/— and 105.67/— and 98.38/— and 100.38/— and 94.02/— and 92.02/—
Absolute dZiec, control value of max diff. (maximal control value): 115
Absolute dZiec, control value of min diff. (minimal control value): 98
Absolute dZiec, Group 1, max diff. (group value): 21
Absolute dZiec, Group 1, min diff. (group value): 32
% of control signal, Group 1, max diff.: 18%
% of control signal, Group 1, min diff.: 33%
Absolute dZiec, Group 2, max diff. (group value): 45
Absolute dZiec, Group 2, min diff. (group value): 50
% of control signal, Group 2, max diff.: 39%
% of control signal, Group 2, min diff.: 51%
Absolute dZiec, Group 3, max diff. (group value): 60
Absolute dZiec, Group 3, min diff. (group value): 71
% of control signal, Group 3, max diff.: 52%
% of control signal, Group 3, min diff.: 72%
